{"source": "patent US20230390315A1", "about": "“COMPOSITIONS AND METHODS FOR TREATING ISCHEMIC CONDITIONS” (The Regents of the University of California, priority 2020, published 2023)", "key": {"skin wound": {"tested_on": "skin wound", "assay": "Skin wound healing model (splinted wound)", "assay_type": "in vivo, mouse", "details": "day 4; topical 20 μg daily", "description": "The model has been previously described. Briefly, C57BL/6 female mice (8-10 weeks old) were obtained from Jackson labs (Sacramento, CA). A fresh, full-thickness punch wound (4 mm diameter) using a punch (Acu Punch, Acuderm inc. Ft. Lauderdale, FL) splinted with a sterile neoprene ring (6-mm outer diameter and 4-mm inner diameter), fastened with 5-6 sutures (4-0 nylon) under the influence of Isoflurane was created on the back of the animal in a Class II Biological Safety Cabinet. For all surgical procedures, sterile technique was followed. Buprenorphine was given subcutaneously prior to awakening from anesthesia for anticipated pain. Mice were monitored until fully awake and were housed individually to minimize damage/biting/fighting to the surgical site. […] Treatment agents were prepared in PBS, sterile-filtered and 25 μl solution was applied daily directly to a wound bed for the first 4-5 days under the influence of Isoflurane, followed by daily observation. Wound closure was monitored by regular imaging and the wound area was quantified using ImageJ (National Institutes of Health, Bethesda, MD, USA). […] Epithelial gap was measured histomorphometrically using AxioVision LE Rel.4.4 software. […] Small vessels stained positive for CD31 were counted microscopically on 10 fields (20×) taken around the wound."}, "VEGFR2": {"tested_on": "VEGFR2", "assay": "Western blot of VEGFR2 protein mass in human ECs", "assay_type": "cell-based", "details": "hRMVEC, HUVEC and hDMVECs; 40 uM ManN", "method": "(§1) Cells were allowed to reach 80% confluency in 12-well plates. […] At various time points, plates were taken out of the incubator and kept on ice. Cell monolayers were first washed once with ice-cold PBS before lysis with 250 μl of Pierce RIPA buffer (ThermoFisher Scientific, Rockford, IL) or use 50 mM Tris-HCl (pH 7.6), 150 mM NaCl, 10% Glycerol, 1% NP-40 containing protease/Phosphatase inhibitor cocktail (100×) (Cell signaling, #5872). Lysates were collected and mixed with 4×Bolt LDS Sample Buffer (Novex, Carlsbad, CA) in the presence of Halt protease inhibitors and phosphatase inhibitor cocktail (ThermoFisher scientific, #NP0007). The samples were subjected to SDS-PAGE (Bolt 4-12% Bis-Tris Plus, Invitrogen) using Bolt MES SDS running buffer or NuPAGE 3-8% Tris-Acetate gel using Tris-Acetate SDS running buffer (Novex). HUVECs (passage 6-8) were plated in EBM-2 basal medium (Lonza) with 0.2% FBS. […] Equal amounts of protein lysates were analyzed by SDS-PAGE and blotted with the indicated antibodies. Proteins were transferred using Tris-Glycine buffer with 20% Methanol (Proteonomics grade) (Apex BioResearch Products). Membranes were first incubated with 5% milk in TBST, pH 7.6 (TEKnova, Hollister, CA), followed by blotting with primary and secondary antibodies. […]"}, "[1]": {"assay": "ManN stability in wound fluid from S. aureus infected mice", "assay_type": "in vitro ADME, mouse", "details": "up to 24 hours at 37° C.", "method": "To test ManN stability in wound fluid collected from mice with skin infection as described below, 1.5 μl of 5% ManN solution was added to each 200 μl wound fluid which was first diluted 1:1 (v/v) with PBS. At each time point, samples were taken from 37° C. incubator and stored at −80° C. Plasma proteins were precipitated by adding ice cold acetonitrile to plasma: acetonitrile 1:3 (v/v) ratio. Samples were kept over ice for 1 hr and then centrifuged at 12000 g for 10 min at 7° C. to form a pellet. Supernatants were transferred to other tubed, dried down on a Speed Vac and then reconstituted in UltraPure distilled water and filtered through pre-washed Nanosep 3K Omega filters (Pall Corporation). The filtrate was dried down on Speed Vac. The dry samples were dissolved in 100 μl of water and 2 μL plasma or wound fluid sample was subjected to HPLC analysis. Neutral and amino sugars were separated on a Dionex CarboPac™ PA1 column 4 mm×250 mm with 4 mm×50 mm guard column. An isocratic gradient of 19 mM sodium hydroxide with 0.95 mM sodium acetate was used at a flow rate of 1 ml/min with 20 min run. Data was collected using the Dionex ICS-3000 HPLC system with pulsed amperometric detector using standard Quad waveform. ManN was identified and quantified by comparison with monosaccharide standard using Thermo Scientific Chromeleon software. No ManN samples served as negative controls. […]"}, "[2]": {"tested_on": "αv integrin, Neuropilin-1, VE-cadherin and bFGFR1", "assay": "Protein mass of other N-glycosylated proteins in BCEC", "assay_type": "cell-based, bovine", "method": "as §1"}, "[3]": {"details": "in vivo"}}}
{"smiles": "N[C@H](C=O)[C@@H](O)[C@H](O)[C@H](O)CO", "note": "[ManN, 2-Amino-2-deoxy-D-mannose]", "values": [{"measurement": "average closure of the wound", "setting": "skin wound", "value": 75.6, "unit": "%"}, {"measurement": "change in VEGFR2 protein mass", "setting": "VEGFR2", "value": "significant change in VEGFR2 protein mass"}, {"measurement": "loss of free ManN on incubation with wound fluid", "setting": "[1]", "value": "No significant loss of free ManN"}, {"measurement": "protein mass of other N-glycosylated receptors/adhesion molecules", "setting": "[2]", "value": "affected as well"}, {"measurement": "plasma free ManN peak level", "setting": "[3]; male, C57BL/6, mouse, po", "value": "~100", "unit": "nmol/ml plasma"}, {"measurement": "time of plasma peak level", "setting": "[3]; male, C57BL/6, mouse, po", "value": 1, "unit": "h"}, {"measurement": "free ManN in ischemic leg muscle", "setting": "[3]; male, C57BL/6, mouse, po, 2 h", "value": "0.17+/−0.18 nmol/mg protein"}, {"measurement": "plasma free ManN detectable relative to peak", "setting": "[3]; mouse", "value": "about half of that amount"}]}
